# In publication PMC10300155, “Inhibition of TRPV4 remodels single cell polarity and suppresses the metastasis of hepatocellular carcinoma” (Cell Death & Disease, 2023):
# Tests used:
# [1] = target: T1, TRPV4 (purified, fluorescently labeled) (Homo sapiens, UniProt Q9HBA0); experiment: microscale thermophoresis (Monolith NT.[…]); format: binding
# T1 construct: purified protein, fluorescently labeled for MST
# [2] = target: T2, TRPV4 (native, MHCC-97H cells) (Homo sapiens, UniProt Q9HBA0); experiment: Fluo-4 AM calcium influx, flow cytometry; format: cell-based; details: inhibitor; 0.5 h pre-treatment; agonist GSK1016790A; adherent MHCC-97H cells
# T2 construct: endogenous channel in human hepatocellular carcinoma MHCC-97H cells
# T2 sequence (Q9HBA0 whole entry): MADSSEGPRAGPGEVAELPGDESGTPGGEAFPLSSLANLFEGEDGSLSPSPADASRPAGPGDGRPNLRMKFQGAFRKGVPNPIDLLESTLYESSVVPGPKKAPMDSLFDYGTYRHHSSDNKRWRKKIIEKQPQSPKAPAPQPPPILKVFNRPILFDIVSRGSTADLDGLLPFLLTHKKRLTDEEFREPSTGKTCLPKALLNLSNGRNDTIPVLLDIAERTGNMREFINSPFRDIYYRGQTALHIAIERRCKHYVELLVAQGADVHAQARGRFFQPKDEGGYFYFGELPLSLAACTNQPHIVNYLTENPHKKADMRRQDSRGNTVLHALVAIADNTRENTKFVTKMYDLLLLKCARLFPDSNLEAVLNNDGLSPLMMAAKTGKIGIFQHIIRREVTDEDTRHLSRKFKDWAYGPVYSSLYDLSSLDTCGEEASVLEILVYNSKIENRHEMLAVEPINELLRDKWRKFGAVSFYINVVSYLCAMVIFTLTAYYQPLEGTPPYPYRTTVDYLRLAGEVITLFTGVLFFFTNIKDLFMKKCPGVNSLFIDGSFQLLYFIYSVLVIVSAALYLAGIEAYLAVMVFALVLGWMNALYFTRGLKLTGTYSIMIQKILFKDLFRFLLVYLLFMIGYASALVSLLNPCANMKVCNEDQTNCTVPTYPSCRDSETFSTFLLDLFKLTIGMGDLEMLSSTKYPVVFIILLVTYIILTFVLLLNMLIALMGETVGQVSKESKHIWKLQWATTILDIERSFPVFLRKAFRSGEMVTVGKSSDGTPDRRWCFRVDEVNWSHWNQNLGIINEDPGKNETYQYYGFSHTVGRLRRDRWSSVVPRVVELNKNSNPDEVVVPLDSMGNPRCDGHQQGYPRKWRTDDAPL
# T1 sequence (Q9HBA0 whole entry): as above
smiles,measurement,setting,value
"COc1c(OCCCCN2CCCC2)cc(O)c2c(=O)cc(-c3ccccc3)oc12 [GL-V9, 5-hydroxy-8-methoxy-2-phenyl-7-(4-(pyrro-lidin-1-yl)butoxy)4H-chromen-4-one]",Kd,[1],106 nM
same,"Fluo-4 AM calcium influx, flow cytometry",[2],substantially reduced the calcium influx brought on by GSK1016790A
